Experimental data from US9085593B2, “Therapeutic agent for arthrosis” (SANSHO CO., LTD., priority 2011, dated 2015).
Where “and” joins values, the source holds several entries; their conditions need not be identical. Equal values may be shown once.

System: osteoarthritis in rabbit knee
Experiment: Histopathological evaluation of femur and tibia condyles, rabbit knee osteoarthritis model
Assay type: in vivo, rabbits (Kbs:NZW)
Parameters: key to Fibrillation and/or fissure / Lowered proteoglycan stainability / Disorganization of chondrocytes / Loss of chondrocytes / Exposure of subchondral bone / Cluster formation / Histopathological score / Loss of superficial layer / Cartilage erosion: 0: None; 1: slight; 2: mild; 3: moderate; 4: severe; key to Disorganization of chondrocytes, Mean / Loss of chondrocytes, Mean / Exposure of subchondral bone, Mean / Cluster formation, Mean / Cartilage erosion, Mean: grade 0 to +4 per item; key to Histopathological score, Mean: sum of 8 items each graded 0 to +4
Settings: for Cluster formation / Disorganization of chondrocytes / Exposure of subchondral bone / Fibrillation and/or fissure / Loss of chondrocytes / Lowered proteoglycan stainability / Cartilage erosion / Loss of superficial layer / Histopathological score / Cartilage erosion, Mean / Cluster formation, Mean / Disorganization of chondrocytes, Mean / Exposure of subchondral bone, Mean / Fibrillation and/or fissure, Mean / Loss of chondrocytes, Mean / Loss of superficial layer, Mean / Lowered proteoglycan stainability, Mean / Histopathological score, Mean: day 42; for Cluster formation / Disorganization of chondrocytes / Exposure of subchondral bone / Fibrillation and/or fissure / Loss of chondrocytes / Lowered proteoglycan stainability / Cartilage erosion / Loss of superficial layer / Histopathological score: individual animals 201-206; for Cluster formation / Disorganization of chondrocytes / Exposure of subchondral bone / Fibrillation and/or fissure / Loss of chondrocytes / Lowered proteoglycan stainability / Cartilage erosion / Loss of superficial layer: grade 0-4; for Histopathological score: sum of all items; for Cartilage erosion, Mean / Cluster formation, Mean / Disorganization of chondrocytes, Mean / Exposure of subchondral bone, Mean / Fibrillation and/or fissure, Mean / Loss of chondrocytes, Mean / Loss of superficial layer, Mean / Lowered proteoglycan stainability, Mean / Histopathological score, Mean: group mean n=6
Description: Twelve 11- to 12-week-old male rabbits (Kbs:NZW) were used. Rabbits were reared in separate cages (one rabbit per cage) at 14.4° C. to 24.9° C. under light (12 hours from 7:00 am to 7:00 pm) with continuous ventilation. Rabbits were allowed to eat 150 g of feed (CR-3, CLEA Japan, Inc.) per day and to drink tap water.
(9Z)-9-Octadecenoic acid-(2-hydroxy-2-oxide-1,2-oxaphospholan-4-yl)methyl ester sodium salt (C18:1-cPA; hereafter, referred to as “ScPA”) was used.
Hair in the vicinity of the knee joint of the right hind limb of a rabbit was shaved using electrical clippers under deep anesthesia, and the shaved area was disinfected with Isodine. The outer coat on the medial aspect of the right hind limb was incised with a surgical knife, the boundary between the medial aspect and the articular capsule of the patellofemoral ligament was further incised, and the medial patellofemoral ligament was then dissected. Thereafter, the articular capsule was spread wide open to expose the medial meniscus, which was then completely removed. Following the removal of the meniscus, tissue and epidermis in the vicinity of the articular capsule were sutured. At the time of suturing, the site of operation was washed with physiological saline (titer: 500 mg/20 ml) containing antibiotics (Viccillin, Meiji Seika Pharma Co., Ltd.).
After the model animals were prepared, they were divided into two groups each consisting of 6 individuals while averaging body […] (i.e., the vehicle administered group of Animal Numbers 101 to 106 and the test substance (ScPA) administered group of Animal Numbers 201 to 206).
The test compound and the vehicle were administered in the manner described below. • Route of administration: into the joint cavity • Site of administration: right hind limb (treated limb) • Timing of administration: on days 7, 11, 14, 18, 21, 25, 28, 32, 35, and 39 • Dosage: Test compound: 10 μg/rabbit (volume: 0.2 ml) • Vehicle: 0.2 ml/rabbit • Means of administration: with the use of a 1.0-ml syringe (Terumo Corporation) and a 27 G injection needle (Terumo Corporation) (1-5) Pain Assessment (Weight Distribution Across both Hind Limbs) Frequency of Measurement:
Four limbs were dissected from the animals under deep anesthesia, causing them to bleed to death. Thereafter, the femur condyle and the tibial condyle were removed from the knee joint of the treated limb (the right hind limb), followed by fixation in a 10% neutral buffered formalin solution.
The femur and the tibia that had been soaked and fixed in a 10% neutral buffered formalin solution were subjected to demineralization with EDTA. After the completion of demineralization, the colored sites identified below were embedded in paraffin in accordance with a conventional technique, and the resultant was sliced to a thickness of 4 μm each. The slices were subjected to hematoxylin-eosin (HE) staining and safranin O (proteoglycan) staining and histopathologically examined under an optical microscope (BX51TF; OLYMPUS). The degree of cartilage degeneration of the pathological specimens was evaluated in accordance with the criteria shown in Table 1 below (Kikuchi, T, Yoneda, H. et al., Osteoarthritis cartilage, 4; p. 99 and continuing pages, 1996). Specifically, the specimens were evaluated in terms of loss of the following 8 items according to a five-grade evaluation (0 to +4): superficial layer; cartilage erosion; fibrillation and/or fissure; lowered proteoglycan stainability (safranin O stainability); disorganization of chondrocytes; loss of chondrocytes; exposure of subchondral bone; and cluster formation. The sum total score of all items was defined as the overall score. Observation items without specific criteria defined in Table 1 were evaluated in accordance with the criteria shown in Table 2 below (Naoki Ishiguro et al., Journal of Surgery, 29: p. 112 and continuing pages, 2010).

[1] = lateral condyle of femur, listed as Test substance, sodium salt
[2] = lateral condyle of tibia, listed as Test substance, sodium salt
[3] = medial condyle of femur, listed as Test substance, sodium salt
[4] = medial condyle of the femur, of 6 samples
[5] = medial condyle of the tibia, of 6 samples
[6] = medial condyle of tibia, listed as Test substance, sodium salt

Which “cartilage erosion in histopathological image (FIG. 12 B)” value (Animal No. 201, medial aspect of the right femur, HE staining) does the source give for `CCCCCCCC/C=C\CCCCCCCC(=O)OCC1COP(=O)([O-])C1.[Na+]` (stereo not shown) [ScPA, (9Z)-9-Octadecenoic acid-(2-hydroxy-2-oxide-1,2-oxaphospholan-4-yl)methyl ester sodium salt] here?
The value was “slight”.

And the “joint cartilage change in histopathological image (FIG. 12 D)” value (Animal No. 201, medial aspect of the right femur, SO staining)?
Its value is “no change”.

What about the Cluster formation (lateral condyle of femur) of the same molecule?
Its Cluster formation is 0.

What about the Disorganization of chondrocytes (lateral condyle of femur) of the same molecule?
Its Disorganization of chondrocytes is 0.

What about the “Exposure of subchondral bone” value (lateral condyle of femur) of the same molecule?
The value was 0.

And the Fibrillation and/or fissure (lateral condyle of femur)?
Its Fibrillation and/or fissure is 0.

And the Loss of chondrocytes (lateral condyle of femur)?
Its Loss of chondrocytes is 0.

What about the Lowered proteoglycan stainability (lateral condyle of femur) of the same molecule?
Its Lowered proteoglycan stainability is 0.

And the Cartilage erosion [1]?
The Cartilage erosion was 0 (4×) and 1 (2×).

What about the “Loss of superficial layer” value [1] of the same molecule?
The value was 0 (4×) and 1 (2×).

What about the Histopathological score [1] of the same molecule?
Its Histopathological score is 0 (4×) and 2 (2×).

What about the Cartilage erosion (lateral condyle of tibia) of the same molecule?
Its Cartilage erosion is 0.

What about the Cluster formation (lateral condyle of tibia) of the same molecule?
The Cluster formation was 0.

What about the Disorganization of chondrocytes (lateral condyle of tibia) of the same molecule?
The Disorganization of chondrocytes was 0.

What about the “Exposure of subchondral bone” value (lateral condyle of tibia) of the same molecule?
Its value is 0.

What about the Fibrillation and/or fissure (lateral condyle of tibia) of the same molecule?
The Fibrillation and/or fissure was 0.

What about the Loss of chondrocytes (lateral condyle of tibia) of the same molecule?
Its Loss of chondrocytes is 0.

What about the “Loss of superficial layer” value (lateral condyle of tibia) of the same molecule?
The value was 0.

What about the Lowered proteoglycan stainability [2] of the same molecule?
Its Lowered proteoglycan stainability is 0 (3×) and 1 (3×).

What about the Histopathological score [2] of the same molecule?
The Histopathological score was 0 (3×) and 1 (3×).

And the “damages resulting from the preparation of osteoarthritis models” value (lateral condyles of the femur and of the tibia)?
Its value is “substantially no damages”.

What about the “Cartilage erosion, Mean” value (medial condyle of femur) of the same molecule?
Its value is 1.17.

What about the “Cluster formation, Mean” value (medial condyle of femur) of the same molecule?
Its value is 2.17.

What about the “Disorganization of chondrocytes, Mean” value (medial condyle of femur) of the same molecule?
The value was 0.83.

And the “Exposure of subchondral bone, Mean” value (medial condyle of femur)?
The value was 0.33.

And the “Fibrillation and/or fissure, Mean” value (medial condyle of femur)?
The value was 0.67.

And the “Loss of chondrocytes, Mean” value (medial condyle of femur)?
The value was 0.83.

What about the “Loss of superficial layer, Mean” value (medial condyle of femur) of the same molecule?
The value was 1.17.

What about the “Lowered proteoglycan stainability, Mean” value (medial condyle of femur) of the same molecule?
The value was 1.17.

What about the “Histopathological score, Mean” value (medial condyle of femur, p=0.0649 vs vehicle, listed as Test substance, sodium salt) of the same molecule?
The value was 8.33.

What about the “Histopathological score, Mean” value (medial condyle of femur, p=0.0649 vs vehicle, listed as test substance, sodium salt) of the same molecule?
The value was 8.33±2.51.

What about the Cartilage erosion [3] of the same molecule?
The Cartilage erosion was 1 (4×) and 0 and 3.

And the Cluster formation [3]?
The Cluster formation was 2 (4×) and 4 and 1.

And the Disorganization of chondrocytes [3]?
Its Disorganization of chondrocytes is 0 and 1 (5×).

What about the “Exposure of subchondral bone” value [3] of the same molecule?
Its value is 0 (5×) and 2.

What about the Fibrillation and/or fissure [3] of the same molecule?
Its Fibrillation and/or fissure is 1 and 0 (4×) and 3.

What about the Loss of chondrocytes [3] of the same molecule?
Its Loss of chondrocytes is 0 (3×) and 1 (2×) and 3.

What about the “Loss of superficial layer” value [3] of the same molecule?
The value was 1 (4×) and 0 and 3.

And the Lowered proteoglycan stainability [3]?
The Lowered proteoglycan stainability was 1 (2×) and 2 and 0 (2×) and 3.

And the Histopathological score [3]?
The Histopathological score was 6 (2×) and 10 and 3 and 20 and 5.

And the Histopathological score (medial condyle of femur, listed as test substance, sodium salt)?
Its Histopathological score is 6 (2×) and 5 and 10 and 3 and 20.

What about the “samples in which cartilage erosion was observed” value [4] of the same molecule?
Its value is 5.

What about the “samples in which cluster formation was observed” value [4] of the same molecule?
Its value is 6.

And the “samples in which disorganization of chondrocytes was observed” value [4]?
The value was 5.

And the “samples in which loss of cartilage superficial layer was observed” value [4]?
Its value is 5.

What about the “samples with changes lesser than those observed in the vehicle administered group” value [4] of the same molecule?
Its value is 4.

And the “histopathological scores compared with the vehicle administered group” value (medial condyle of the femur, p=0.0649)?
The value was “lower than those of the vehicle administered group”.

And the “samples in which cartilage fibrillation and/or fissure was observed” value [5]?
The value was 6.

What about the “samples in which loss of cartilage superficial layer was observed” value [5] of the same molecule?
The value was 5.

And the “samples in which lowered proteoglycan stainability was observed” value [5]?
The value was 5.

What about the “Cartilage erosion, Mean” value (medial condyle of tibia) of the same molecule?
Its value is 1.17.

And the “Cluster formation, Mean” value (medial condyle of tibia)?
The value was 1.50.

And the “Disorganization of chondrocytes, Mean” value (medial condyle of tibia)?
The value was 1.33.

And the “Exposure of subchondral bone, Mean” value (medial condyle of tibia)?
The value was 0.50.

What about the “Fibrillation and/or fissure, Mean” value (medial condyle of tibia) of the same molecule?
The value was 1.50.

What about the “Loss of chondrocytes, Mean” value (medial condyle of tibia) of the same molecule?
The value was 0.67.

What about the “Loss of superficial layer, Mean” value (medial condyle of tibia) of the same molecule?
Its value is 2.00.

What about the “Lowered proteoglycan stainability, Mean” value (medial condyle of tibia) of the same molecule?
Its value is 1.83.

What about the “Histopathological score, Mean” value (medial condyle of tibia, p=0.6991 vs vehicle, listed as Test substance, sodium salt) of the same molecule?
Its value is 10.50.

And the “Histopathological score, Mean” value (medial condyle of tibia, p=0.6991 vs vehicle, listed as test substance, sodium salt)?
The value was 10.50±3.91.

What about the Cartilage erosion [6] of the same molecule?
Its Cartilage erosion is 2 and 1 (2×) and 0 (2×) and 3.

What about the Cluster formation [6] of the same molecule?
The Cluster formation was 4 and 1 (2×) and 0 (2×) and 3.

What about the Disorganization of chondrocytes [6] of the same molecule?
The Disorganization of chondrocytes was 2 and 1 (2×) and 0 (2×) and 4.

What about the “Exposure of subchondral bone” value [6] of the same molecule?
Its value is 0 (5×) and 3.

And the Fibrillation and/or fissure [6]?
The Fibrillation and/or fissure was 1 (4×) and 3 and 2.

And the Loss of chondrocytes [6]?
Its Loss of chondrocytes is 0 (4×) and 3 and 1.

What about the “Loss of superficial layer” value [6] of the same molecule?
Its value is 3 (2×) and 1 (2×) and 0 and 4.

What about the Lowered proteoglycan stainability [6] of the same molecule?
Its Lowered proteoglycan stainability is 4 (2×) and 1 (3×) and 0.

What about the Histopathological score [6] of the same molecule?
The Histopathological score was 16 and 6 and 1 and 27 and 9 and 4.

What about the Histopathological score (medial condyle of tibia, listed as test substance, sodium salt) of the same molecule?
Its Histopathological score is 4 and 16 and 6 and 1 and 27 and 9.
